Assay results published in PMC4501006, “Preliminary Characterization and In Vivo Studies of Structurally Identical ^18F- and ^125I-Labeled Benzyloxybenzenes for PET/SPECT Imaging of β-Amyloid Plaques” (Scientific Reports, 2015).

Experiments:
[1] = Partition coefficient determination (log D); format: physicochemical
Protocol: An ideal Aβ imaging probe would combine a high binding affinity to Aβ plaques and excellent pharmacokinetics with high initial brain uptake and rapid washout from normal brain regions. Thus, the partition coefficients of these four radiolabeled ligands were determined to estimate their ability to penetrate the BBB.

[2] = In vivo metabolism (biostability), HPLC analysis of organ samples; conditions: ICR mice, i.v.
Protocol: All four radioactive ligands degraded to two corresponding polar radioactive products with shorter retention times. […] The good in vivo biostability of these compounds enhances their potential for SPECT mapping of the brain. […] In the plasma, all four ligands were rapidly converted to polar metabolites, leaving only approximately 10% of the parent tracers at 60 min. […] In contrast, the breakdown of [^125I]7a and [^125I]12a was so rapid that almost negligible amounts of parent tracers remained at 30 min (8.8% and 6.3%, respectively). The polar and hydrophilic metabolites metabolized by the liver could be absorbed by the intestine and excreted through the urine, in accordance with the biodistribution results. The rapid metabolism in the liver may be another reason for the faster clearance of these compounds from the normal brain. For structurally identical molecules labeled with radioactive isotopes at different positions, the in vivo metabolic pathways were expected to be the same. However, as only radioactive products can be detected with PET/SPECT scanners, different pharmacokinetics of the radioactive components could lead to different imaging results. […] The dual radiolabeled identical benzyloxybenzene derivatives in this study were expected to undergo the same metabolic reactions, generating different radioactive metabolites. Differences in the biochemical characteristics of the radiometabolites including absorption, distribution, metabolism and excretion are responsible for the discrepancy in the pharmacokinetics of the radioactivity.

Aβ plaques = Aβ plaques (Homo sapiens, UniProt P05067); test: In vitro autoradiography on AD human brain sections; format: binding
Aβ plaques, sequence (P05067 672-711 limits assumed): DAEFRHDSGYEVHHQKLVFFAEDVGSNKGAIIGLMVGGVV
Description: Figure 5 In vitro autoradiography of [^125I]7a (a–d), [^18F]7a (e–h), [^125I]12a (i–l) and [^18F]12a (m–p).

Row | Compound | logD [1] | Percentage of Parent tracer, Brain ([2]; post-injection time 2 min) [%] | Percentage of Parent tracer, Feces ([2]; post-injection time 2 min) [%] | Percentage of Parent tracer, Liver ([2]; post-injection time 2 min) [%] | Percentage of Parent tracer, Plasma ([2]; post-injection time 2 min) [%] | Percentage of Parent tracer, Urine ([2]; post-injection time 2 min) [%] | Percentage of Parent tracer, Brain ([2]; post-injection time 10 min) [%] | Percentage of Parent tracer, Feces ([2]; post-injection time 10 min) [%] | Percentage of Parent tracer, Liver ([2]; post-injection time 10 min) [%] | Percentage of Parent tracer, Plasma ([2]; post-injection time 10 min) [%] | Percentage of Parent tracer, Urine ([2]; post-injection time 10 min) [%] | Percentage of Parent tracer, Brain ([2]; post-injection time 30 min) [%] | Percentage of Parent tracer, Feces ([2]; post-injection time 30 min) [%] | Percentage of Parent tracer, Liver ([2]; post-injection time 30 min) [%] | Percentage of Parent tracer, Plasma ([2]; post-injection time 30 min) [%] | Percentage of Parent tracer, Urine ([2]; post-injection time 30 min) [%] | Percentage of Parent tracer, Brain ([2]; post-injection time 60 min) [%] | Percentage of Parent tracer, Feces ([2]; post-injection time 60 min) [%] | Percentage of Parent tracer, Liver ([2]; post-injection time 60 min) [%] | Percentage of Parent tracer, Plasma ([2]; post-injection time 60 min) [%] | other results
1 | [18F]CCOc1ccc(OCc2ccc(I)cc2)cc1 [[^18F]7a] | 3.88 ± 0.17 | 84.7 | 53.6 | 79.5 | 43.1 | 0.0 | 69.8 | 18.8 | 62.6 | 21.6 | 0.0 | 68.9 | 10.5 | 48.7 | 21.8 | 0.0 | 34.0 | 7.3 | 23.4 | 7.2 | Percentage of Parent tracer, Urine ([2]; post-injection time 60 min): 0.0%; in vitro autoradiography, plaque labeling (Aβ plaques): specifically label Aβ deposits
2 | [18F]CCOc1ccc(COc2ccc(I)cc2)cc1 [[^18F]12a] | 3.84 ± 0.07 | 87.9 | 46.7 | 91.1 | 73.7 | 0.0 | 65.7 | 20.9 | 85.3 | 40.4 | 0.0 | 49.2 | 16.8 | 82.2 | 34.1 | 0.0 | 29.8 | 17.4 | 21.7 | 13.9 | Percentage of Parent tracer, Urine ([2]; post-injection time 60 min): 0.0%; in vitro autoradiography, plaque labeling (Aβ plaques): specifically label Aβ deposits
3 | FCCOc1ccc(OCc2ccc([125I])cc2)cc1 [[^125I]7a] | 3.96 ± 0.22 | 95.9 | 22.9 | 35.2 | 85.2 | 0.0 | 86.0 | 58.8 | 13.5 | 41.3 | 2.6 | 79.4 | 2.0 | 8.8 | 22.1 | 0.0 | 72.1 | 0.0 | 3.3 | 12.3 | Percentage of Parent tracer, Urine ([2]; post-injection time 60 min): 0.0%; in vitro autoradiography, plaque labeling (Aβ plaques): specifically label Aβ deposits
